Measured values as given in US20150272931A1, “New Treatment” (priority 2012, published 2015).

Test system: sea lice (L. salmonis)
Assay: In-feed treatment of sea lice infested salmon: efficacy
Type: in vivo, Lepeophtheirus salmonis on Atlantic salmon
Conditions: for Reduction of total sea lice: adult sea lice, lice examined ten days after end of treatment
Excerpt: In-feed treatment of sea lice infested salmon with 5 different neonicotinoids (a) Method: Atlantic salmon (estimated mean weight 50-100 g) were batch weighed and allocated to a single 2 m diameter challenge tank. Fish were challenged with sea lice (L. salmonis) copepodids. Within one week of the successful lice challenge, fish were randomly allocated from the 2 m challenge tank to 1 m diameter treatment tanks so that each tank contained thirty fish.
Fish were maintained until lice developed to adult stages. This was monitored by periodic examination of fish from the control tank. There were five test compounds acetamiprid (A), clothianidin (B), imidacloprid (C), nitenpyram (D) plus a control (E), each compound was tested at three doses. Experimental diets were prepared by top dressing feed pellets with the powder formulation and sealing with fish oil. Once lice had developed to adult stages, fish in all tanks received an in-feed treatment according to the relevant group for a period of seven days. Uneaten feed was collected daily to estimate the mean dose achieved in each group. Fish were examined for lice ten days following the end of the treatment period.
Following the 7day treatment period, the mean sea lice count in the control group was 7±3 adult sea lice meaning the total of adult males, adult non-ovigerous females and adult ovigerous females.

[1] = dose 1 mg/kg/day in feed for 7 days
[2] = dose 5 mg/kg/day in feed for 7 days
[3] = dose 10 mg/kg/day in feed for 7 days

Question: For `C/C(=N\C#N)N(C)Cc1ccc(Cl)nc1` [Acetamiprid, acetamiprid], which “Reduction of total sea lice” value [1] is on record?
Answer: The value was 53%.

Question: What about the “Reduction of total sea lice” value [2] of the same compound?
Answer: The value was 64%.

Question: And the “Reduction of total sea lice” value [3]?
Answer: Its value is 85%.

Question: What does the source list for `O=[N+]([O-])NC1=NCCN1Cc1ccc(Cl)nc1` [Imidacloprid, imidacloprid]?
Answer: Reduction of total sea lice [1]: 91%; Reduction of total sea lice [2]: 94%; Reduction of total sea lice [3]: 81%

Question: Which results are given for `CCN(Cc1ccc(Cl)nc1)/C(=C/[N+](=O)[O-])NC` [Nitenpyram, nitenpyram]?
Answer: Reduction of total sea lice [1]: 48%; Reduction of total sea lice [2]: 89%; Reduction of total sea lice [3]: 89%

Question: Which results are given for `CN/C(=N\[N+](=O)[O-])NCc1cnc(Cl)s1` [Clothianidin, (E)-1-(2-Chlor-1,3-thiazol-5-ylmethyl)-3-methyl-2-nitroguanidin]?
Answer: sea lice reduction efficacy (at all three selected concentrations (10, 5, 1 mg/kg/day)): ≥ 90%; Reduction of total sea lice [1]: 90%; Reduction of total sea lice [2]: 98%; Reduction of total sea lice [3]: 99%; sea lice elimination (in-feed treatment, summary statement): full sea lice elimination
